Where “and” joins values, the source holds several entries; their conditions need not be identical. Identical values can stand only once.
T1: C. elegans APP-1 (X-prolyl aminopeptidase, aminopeptidase P1) (Caenorhabditis elegans, UniProt O44750)
T1 construct: full length (residues 1-616), N-terminal His-tag kept, pET19b, E. coli BL21 Star (DE3); homodimer, monomer 71977 Da by MS; two Zn2+ per monomer in crystal
T1 sequence (O44750 1-616): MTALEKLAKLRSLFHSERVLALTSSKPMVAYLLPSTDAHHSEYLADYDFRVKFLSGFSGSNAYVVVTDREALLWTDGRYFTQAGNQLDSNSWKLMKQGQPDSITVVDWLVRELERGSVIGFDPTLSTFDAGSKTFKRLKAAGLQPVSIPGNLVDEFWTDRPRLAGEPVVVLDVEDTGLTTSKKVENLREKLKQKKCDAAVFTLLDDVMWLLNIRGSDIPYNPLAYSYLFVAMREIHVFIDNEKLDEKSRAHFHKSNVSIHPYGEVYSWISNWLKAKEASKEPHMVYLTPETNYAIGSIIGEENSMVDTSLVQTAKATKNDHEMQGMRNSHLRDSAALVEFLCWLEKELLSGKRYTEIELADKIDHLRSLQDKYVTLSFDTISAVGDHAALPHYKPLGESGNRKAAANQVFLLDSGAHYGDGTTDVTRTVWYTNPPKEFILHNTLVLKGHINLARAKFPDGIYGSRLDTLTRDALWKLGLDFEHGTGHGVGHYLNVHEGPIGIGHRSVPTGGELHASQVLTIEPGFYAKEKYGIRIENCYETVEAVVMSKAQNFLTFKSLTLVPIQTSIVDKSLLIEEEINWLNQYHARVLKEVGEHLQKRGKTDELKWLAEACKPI


Tests used:
[1] = molecular target: T1, C. elegans APP-1 (X-prolyl aminopeptidase, aminopeptidase P1); assay: HPLC assay of bradykinin cleavage ([…] nm); assay type: biochemical
[2] = molecular target: the molecule itself; assay: AUC; sedimentation velocity; 0.3 mg/ml APP-1 dialysed against 10 mM Tris/HCl pH 7.5, 150 mM KCl; 40,000 rpm, 20 °C; Rayleigh interference and absorbance at 275 nm

Molecule	inhibition at 10 µM [1] [%]	stoichiometry N [2]
C[C@H](NC(=O)[C@@H]1CCCN1C(=O)[C@@H]1CCCN1C(=O)[C@@H](O)[C@H](N)Cc1ccccc1)C(N)=O [apstatin]	92	
Caenorhabditis elegans aminopeptidase P1 (APP-1), recombinant, His-tagged (enzyme, C. elegans, UniProt O44750 1-616, looked up, Aminopeptidase P1 (APP-1, X-prolyl aminopeptidase), C. elegans, cytosolic; cDNA amplified with primers from the start codon to the stop codon; residues 1-616 (N-terminal domain 1-163, middle domain 164-318, C-terminal domain 319-616); N-terminal His tag and linker come from pET19b and were not removed; Mass spectrometry fits the His-tagged protein after removal of the start methionine (calculated …)) MTALEKLAKLRSLFHSERVLALTSSKPMVAYLLPSTDAHHSEYLADYDFRVKFLSGFSGSNAYVVVTDREALLWTDGRYFTQAGNQLDSNSWKLMKQGQPDSITVVDWLVRELERGSVIGFDPTLSTFDAGSKTFKRLKAAGLQPVSIPGNLVDEFWTDRPRLAGEPVVVLDVEDTGLTTSKKVENLREKLKQKKCDAAVFTLLDDVMWLLNIRGSDIPYNPLAYSYLFVAMREIHVFIDNEKLDEKSRAHFHKSNVSIHPYGEVYSWISNWLKAKEASKEPHMVYLTPETNYAIGSIIGEENSMVDTSLVQTAKATKNDHEMQGMRNSHLRDSAALVEFLCWLEKELLSGKRYTEIELADKIDHLRSLQDKYVTLSFDTISAVGDHAALPHYKPLGESGNRKAAANQVFLLDSGAHYGDGTTDVTRTVWYTNPPKEFILHNTLVLKGHINLARAKFPDGIYGSRLDTLTRDALWKLGLDFEHGTGHGVGHYLNVHEGPIGIGHRSVPTGGELHASQVLTIEPGFYAKEKYGIRIENCYETVEAVVMSKAQNFLTFKSLTLVPIQTSIVDKSLLIEEEINWLNQYHARVLKEVGEHLQKRGKTDELKWLAEACKPI		2 and 4
